Reference: article PMC6764326, “The Trials and Tribulations of Structure Assisted Design of KCa Channel Activators” (Frontiers in Pharmacology, 2019)
Values belong to the compound of their own block, whether it stands above or below them.

Key:
WT KCa3.1 [1] = target: T1, WT KCa3.1 (Homo sapiens, UniProt O15554+P0DP23); details: 100 µM EBIO; control current at 250 nM free Ca2+; wild type channel
[2] = tested on: KCa3.1 over KCa2 channels; details: first generation activators; ref Christophersen and Wulff, 2015; cited from earlier work
[3] = tested on: S372 in KCa3.1 or the corresponding S632 residue in KCa2.3 to arginine; set-up: method as in Brown et al., 2017; details: ref Brown et al., 2017; cited from earlier work
KCa3.1 = details: cited from earlier work; for EC50: ref Coleman et al., 2014, read-out: Potency of KCa3.1 activation
KCa2.2 = tested on: KCa2.2; set-up: method as in Sankaranarayanan et al., 2009; details: ref Sankaranarayanan et al., 2009; cited from earlier work
KCa2 = tested on: KCa2; set-up: method as in Coleman et al., 2014; details: ref Coleman et al., 2014; read-out: Potency of KCa2 activation; cited from earlier work
KCa2.3 = tested on: KCa2.3; set-up: method as in Coleman et al., 2014; details: ref Coleman et al., 2014; read-out: Potency of KCa2.3 activation; cited from earlier work
[4] = target: T2, KCa3.1 S181A-L185A double mutant (Homo sapiens, UniProt O15554+P0DP23, L185A/S181A); assay: Inside-out patch-clamp calcium concentration-response; assay type: cell-based
T2 construct: expressed in transfected cells; host or cells: CHO cells, transient transfection
Description: (§1) All experiments were performed in either the inside-out or the whole-cell configuration of the patch-clamp technique on either transiently transfected CHO cells or Human Embryonic Kidney (HEK) cell lines stably expressing hKCa3.1 or hKCa2.2 ([Sankaranarayanan et al., 2009]). All cells were cultured in Dulbecco’s modified Eagle’s medium supplemented with 10% fetal calf serum. […]
(§2) For manual whole-cell experiments, the extracellular solution contained 160 mM NaCl, 4.5 mM KCl, 2 mM CaCl2, 1 mM MgCl2, and 10 mM HEPES (pH 7.4, 300 mOsm). Solutions on the intracellular side contained 154 mM KCl, 10 mM HEPES, 10 mM EGTA, 1.75 mM MgCl2, and 5.9 mM CaCl2 for a calculated free Ca^2+ concentration of 250 nM (pH 7.2, 290 mOsm). […] Intracellular solutions contained 154 mM KCl, 10 mM HEPES, 10 mM EGTA, 1.75 mM MgCl2, and varying amounts of CaCl2 for calculated free Ca^2+ concentrations of […] (pH 7.2, 280–300 mOsm). Free Ca^2+ concentrations were calculated using the July 3, 2009 online version of MaxChelator (https://somapp.ucdmc.ucdavis.edu/pharmacology/bers/maxchelator/webmaxc/webmaxcS.htm) assuming a temperature of 25°C, a pH of 7.2, and an ionic strength of 160 mM. […]

WT KCa3.1 [5] = target: T1, WT KCa3.1; assay: as above; assay type: cell-based; set-up: expressed in transfected cells; host or cells: CHO cells, transient transfection
Description: as §1, §2

Compound: CCn1c(=O)[nH]c2ccccc21 [EBIO]
Increase of control current (WT KCa3.1 [1]): 5–10 fold | Selectivity for KCa3.1 over KCa2 channels [2]: 5–10 fold | Change of activator potency by S372R (KCa3.1) / S632R (KCa2.3) mutation [3]: strong reduction in potency

Compound: O=C1Nc2c(ccc(Cl)c2Cl)C1=NO [NS309, 6,7-dichloro-1H-indole-2,3-dione 3-oxime]
Selectivity for KCa3.1 over KCa2 channels [2]: 5–10 fold | Change of activator potency by S372R (KCa3.1) / S632R (KCa2.3) mutation [3]: strong reduction in potency

Compound: Nc1nc2c(ccc3ccccc32)s1 [SKA-31, Naphtho[1,2-d]thiazol-2-ylamine]
Activation of KCa3.1 at 10 µM (KCa3.1; 10 µM, ref Sankaranarayanan et al., 2009): maximally activates | Activation of KCa2.2 at 10 µM (KCa2.2): maximally activates | Selectivity for KCa3.1 over KCa2 channels [2]: 5–10 fold

Compound: Cc1nc2c(ccc3ccccc32)s1 [SKA-74, 2-methylnaphtho[1,2-d]thiazole]
EC50 (KCa3.1): ~30 µM | EC50 (KCa2): ~30 µM

Compound: Nc1nc(-c2cccc3ccccc23)cs1 [SKA-75]
EC50 (KCa3.1): ~30 µM | EC50 (KCa2.3): ~30 µM

Compound: Nc1nc(-c2ccc3ccccc3c2)cs1 [SKA-76]
EC50 (KCa3.1): ~50 µM | EC50 (KCa2.3): ~25 µM

EC50 [4]: 0.392 µM | nH calcium concentration-response [4]: 1.39 | EC50 (WT KCa3.1 [5]): 0.437 µM | nH calcium concentration-response (WT KCa3.1 [5]): 1.98
Compound: [Ca] [calcium]
